Test results from patent US10759994B2, “Luminogenic transition metal-based pyridyl complex and its use” (City University of Hong Kong, priority 2016, dated 2020).

Experiments:
HeLa cells = test: LSCM imaging of bioorthogonal labeling of BCN-C10 in HeLa cells; type: cell-based; conditions: for Subcellular structure stained / Staining pattern over time: BCN-C10-pretreated HeLa cells; for Staining pattern over time / Intracellular emission with BCN-C10 pretreatment: complex 40 μM; for Intracellular emission with BCN-C10 pretreatment: HeLa cells, BCN-C10 200 μM 1 h, λex=488 nm
From the text: (“1 b”, “2b”, “3b”, “4b”, and “5b” indicate the complexes of the present invention; “—BCN-C10” means BCN-C10-untreated HeLa cells; “+BCN-C10” means BCN-C10-pretreated HeLa cells).
(“2b” and “5b” indicate the complexes of the present invention; “—BCN-C10” means BCN-C10-untreated HeLa cells; “+BCN-C10” means BCN-C10-pretreated HeLa cells).
The bioorthogonal labeling properties of complexes 1a-5b were investigated using CHO-K1 or HeLa cells with or without pretreatment of an exogenous molecule BCN-010, i.e., a BCN-modified decane molecule. The intracellular distribution of BCN-C10 was then imaged using laser scanning confocal microscopy (LSCM).
In the study of the ruthenium(II) nitrone complexes, live HeLa cells were treated with BCN-C10 (200 μM) for 1 h, thoroughly washed with PBS, then incubated with complexes 1b-5b (40 μM) for 12 h, and finally imaged by LSCM. More specifically, HeLa cells were incubated in growth medium/DMSO (99:1, v/v) containing BCN-C10 (200 μM) in the dark at 37° C. under a 5% CO2 atmosphere for 1 h. After treatment, the medium was removed, the cells were washed thoroughly with PBS (1 mL×3), and then incubated in growth medium/DMSO (99:1, v/v) containing the ruthenium(II) complex (40 μM) in the dark at 37° C. under a 5% CO2 atmosphere. After incubation for 3, 6, 12, or 24 h, the culture medium was removed and the cell was were washed with PBS (1 mL×3). The coverslip was mounted onto a sterilized glass slide and then imaging was performed using a Leica TCS SPE confocal microscope with an oil immersion 63× objective len and an excitation wavelength at 488 nm. […] Additionally, BCN-C10-pretreated cells were incubated with complexes 2b and 5b for different time periods (3, 6, 12, and 24 h) (FIG. 6). […] The regioselective staining is assumed to be closely related to the subcellular distribution of BCN-C10, and the lipophilicity and reactivity of the complexes.

[1] = Photophysical data (emission wavelength, lifetime, quantum yield); type: physicochemical
Experimental: Electronic absorption spectra were recorded on an Agilent 8453 diode array spectrophotometer. Steady-state emission spectra were recorded on a HORIBA JOBIN YVON Fluorolog TCSPC spectrofluorometer. Unless specified otherwise, all solutions for photophysical studies were degassed with no fewer than four successive freeze-pump-thaw cycles and stored in a 10-cm^3 round bottomed flask equipped with a side-arm 1-cm fluorescence cuvette and sealed from the atmosphere by a Rotaflo HP6/6 quick-release Teflon stopper. Luminescence quantum yields were measured by the optically dilute method (Demas, J. N. and Crosby, G. A., J. Phys. Chem. 1971, 75, 991) using an aerated aqueous solution of [Ru(bpy)3]Cl2 (ϕem=0.028, λex=455 nm) as the standard solution (Wallace, L. and Rillema, D. P., Inorg. Chem., 1993, 32, 3836). The concentrations of the standard and sample solutions were adjusted until the absorbance at 455 nm was 0.1. The emission lifetimes were measured on a HORIBA JOBIN YVON Fluorolog TCSPC spectrofluorometer in the Fast MCS lifetime mode with a NanoLED N-375 as the excitation source.
The very low emission quantum yield of complexes 1a-5b compared with other related iridium(III) and ruthenium(II) systems are expected to be due to quenching by the nitrone moiety.
In particular, the emission quantum yields of the iridium(III) complexes 1a, 2a and 3a (ϕem<0.021; Table 1) were much lower than those of common cyclometalated iridium(Ill) polypyridyl complexes (Li, S. P.-Y. et al., Chem. Eur. J. 2010, 16, 8329; Li, S. P.-Y. et al., Biomaterials 2013, 34, 7519; Lo, K. K.-W. et al., Chem. Commun. 2013, 49, 4271) which is expected to be a consequence of efficient quenching associated with isomerization of the C═N group.

[2] = Potassium phosphate buffer (50 mM, pH 7.4)/DMSO (9:1, v/v), 298 K
[3] = Potassium phosphate buffer (50 mM, pH 7.4)/MeOH (4:1, v/v), 298 K

SMILES	Subcellular structure stained (HeLa cells)	Staining pattern over time (HeLa cells; 6 h)	Staining pattern over time (HeLa cells; 12 h)	Staining pattern over time (HeLa cells; 24 h)	Intracellular emission with BCN-C10 pretreatment (HeLa cells; 12 h)	Φem ([1]; CH2Cl2, 298 K)	τo ([1]; CH2Cl2, 298 K) [μs]	Φem ([1]; MeOH, 298 K)	λem ([1]; MeOH, 298 K) [nm]	τo ([1]; MeOH, 298 K) [μs]	Φem [1, 2]	λem [1, 2] [nm]	τo [1, 2] [μs]	Φem [1, 3]	λem [1, 3] [nm]	τo [1, 3] [μs]
CCCCNC(=O)c1ccnc(-c2cc(C(=O)NCCCC)ccn2)c1.CCCCNC(=O)c1ccnc(-c2cc(C(=O)NCCCC)ccn2)c1.Cc1ccnc(-c2cc(/C=[N+](/C)[O-])ccn2)c1.F[P-](F)(F)(F)(F)F.F[P-](F)(F)(F)(F)F.[Ru+2] [Complex 2b]	cell membrane staining	selectively lighted up the cell surface	intense cell membrane staining plus some sharp vesicles in the cytoplasmic regions adjacent to cell membrane	intense granular staining in the cytoplasm	intense subcellular staining	0.013	1.68	0.006	647	0.98	0.003	650	0.52	–	–	–
Cc1ccnc(-c2cc(/C=[N+](/C)[O-])ccn2)c1.F[P-](F)(F)(F)(F)F.F[P-](F)(F)(F)(F)F.[Ru+2].c1ccc(-c2ccccn2)nc1.c1ccc(-c2ccccn2)nc1 [Complex 1b]	punctate cell surface staining	–	–	–	weak but enhanced emission	0.006	1.20	0.006	609	0.94	0.004	611	0.64	–	–	–
Cc1ccnc(-c2cc(/C=[N+](\[O-])c3ccccc3)ccn2)c1.F[P-](F)(F)(F)(F)F.F[P-](F)(F)(F)(F)F.[Ru+2].c1ccc(-c2ccccn2)nc1.c1ccc(-c2ccccn2)nc1 [Complex 5b]	cell membrane staining	selectively lighted up the cell surface	intense cell membrane staining plus some sharp vesicles in the cytoplasmic regions adjacent to cell membrane	intense granular staining in the cytoplasm	intense subcellular staining	–	–	0.015	608	0.63	–	–	–	0.006	610	0.69
